Assay results taken from publication PMC10714182 (JACC: Basic to Translational Science, 2023).

Assays:
5-HT2B [1] = target: T1, 5-HT2B (Homo sapiens, UniProt P41595); test: 5-HT2B functional readouts; format: cell-based; conditions: calcium mobilization and G protein dissociation (BRET2)
[2] = tested on: Sugen-hypoxia (Su/Hx) mouse model of PAH; test: Sugen-hypoxia experimental PAH, interventional study; format: in vivo, C57BL/6 mice; conditions: intervention, treatment for 2 weeks after 2 weeks of PAH induction
5-HT2B [3] = target: T1, 5-HT2B; conditions: read-out: previously reported IC50; cited from earlier work
[4] = tested on: Sugen-hypoxia (Su/Hx) mouse model of PAH; test: Sugen-hypoxia experimental PAH, prevention study; format: in vivo, C57BL/6 mice

T1 sequence (P41595 whole entry): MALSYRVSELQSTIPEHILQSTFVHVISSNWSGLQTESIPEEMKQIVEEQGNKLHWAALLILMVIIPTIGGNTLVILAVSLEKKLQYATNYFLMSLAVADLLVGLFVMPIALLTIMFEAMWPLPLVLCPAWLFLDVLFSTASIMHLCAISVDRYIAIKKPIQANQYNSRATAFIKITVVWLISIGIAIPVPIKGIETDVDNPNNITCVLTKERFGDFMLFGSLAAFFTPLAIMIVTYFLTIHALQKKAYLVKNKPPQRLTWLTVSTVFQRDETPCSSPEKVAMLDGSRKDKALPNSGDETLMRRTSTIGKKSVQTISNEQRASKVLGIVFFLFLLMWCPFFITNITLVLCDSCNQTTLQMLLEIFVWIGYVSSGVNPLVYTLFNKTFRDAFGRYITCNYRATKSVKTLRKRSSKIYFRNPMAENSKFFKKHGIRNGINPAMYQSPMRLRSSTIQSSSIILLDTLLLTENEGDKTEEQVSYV

Cc1cc(NC(=O)Nc2ccc3c(ccn3C)c2)sn1 [SB204741, N-(1-methyl-5-indolyl)-N'-(3-methyl-5-isothiazolyl)urea]
behaviour in 5-HT2B functional readouts (5-HT2B [1]): true antagonist
number of partially and fully muscularized small vessels (0-25 μm) [2]: reduced the number of partially, but not fully, muscularized small vessels
IC50 (5-HT2B [3]): 0.0393 µM
RVSP vs vehicle control-treated Su/Hx mice ([4]; osmotic pump 3 weeks, SB204741 1 mg/kg/d, VU6047534 10 mg/kg/d): significantly reduced
number of partially and fully muscularized small vessels (0-25 μm) ([4]; treatment before induction of experimental PAH): reduced the number of both partially and fully muscularized small vessels
